Laboratory results from ChEMBL document CHEMBL1201862, “PubChem BioAssay data set” (2004).
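96-well plates; 48 h exposure; 5 concentrations. Endpoints by linear interpolation between flanking doses. Not reached: highest tested concentration assigned. The concentration for 50% growth inhibition is given as GI50.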 The source made the active and inactive calls. Cut-off read from the data, not from the text of the source: active = GI50 up to about 1.1 µM and inactive = higher.

What was measured:
Experiment in all cases: NCI tumour cell line growth inhibition, 48 h
A549 = test system: A549
ACHN = test system: ACHN
DU-145 = test system: DU-145
HCT-15 = test system: HCT-15
HL-60 = test system: HL-60
HOP-92 = test system: HOP-92
Hs-578T = test system: Hs-578T
M14 = test system: M14
MDA-MB-435 = test system: MDA-MB-435
MDA-N = test system: MDA-N
NCI-H522 = test system: NCI-H522
NCI/ADR-RES = test system: NCI/ADR-RES
OVCAR-4 = test system: OVCAR-4
RPMI-8226 = test system: RPMI-8226
SF-539 = test system: SF-539
SK-MEL-28 = test system: SK-MEL-28
TK-10 = test system: TK-10
HCC 2998 = test system: HCC 2998
SNB-75 = test system: SNB-75

SMILES	GI50 (A549)	GI50 (ACHN)	GI50 (DU-145)	GI50 (HCT-15)	GI50 (HL-60)	GI50 (HOP-92)	GI50 (Hs-578T)	GI50 (M14)	GI50 (MDA-MB-435)	GI50 (MDA-N)	GI50 (NCI-H522)	GI50 (NCI/ADR-RES)	GI50 (OVCAR-4)	GI50 (RPMI-8226)	GI50 (SF-539)	GI50 (SK-MEL-28)	GI50 (TK-10)	GI50 (HCC 2998)	GI50 (SNB-75)
Cc1c(N2C(=O)CS(=O)(=O)C2c2cccc(Oc3ccccc3)c2)c(=O)n(-c2ccccc2)n1C (stereo unspecified)	71.8 µM (inactive)	> 100 µM (inactive)	71.6 µM (inactive)	61.5 µM	14.1 µM (inactive)	44.2 µM (inactive)	30.9 µM (inactive)	23.7 µM (inactive)	36.9 µM (inactive)	24.8 µM (inactive)	26.1 µM (inactive)	61.2 µM (inactive)	14.6 µM (inactive)	27.2 µM (inactive)	> 100 µM (inactive)	> 100 µM (inactive)	11.2 µM (inactive)		
O=c1cnn(CCOCP(=O)(O)O)c(=O)[nH]1	> 100 µM (inactive)	> 100 µM (inactive)	> 100 µM (inactive)			> 100 µM (inactive)	> 100 µM (inactive)	> 100 µM (inactive)	> 100 µM (inactive)	> 100 µM (inactive)	> 100 µM (inactive)	> 100 µM (inactive)		> 100 µM (inactive)	> 100 µM (inactive)	> 100 µM (inactive)	> 100 µM (inactive)	> 100 µM (inactive)	> 100 µM (inactive)
CC(C)CCCC(C)[C@H]1CC[C@H]2[C@@H]3CC[C@H]4C[C@@H](CCC=C(c5cc(Cl)c(O)c(C(=O)OC(C)(C)C)c5)c5cc(Cl)c(O)c(C(=O)OC(C)(C)C)c5)CC[C@]4(C)[C@H]3CC[C@]12C (stereo partly specified)	> 50 µM (inactive)		> 50 µM (inactive)	> 50 µM	> 50 µM (inactive)		> 50 µM (inactive)	> 50 µM (inactive)	> 50 µM (inactive)	> 50 µM (inactive)		> 50 µM (inactive)	> 50 µM (inactive)	> 50 µM (inactive)	15.7 µM (inactive)	> 50 µM (inactive)		> 50 µM (inactive)	> 50 µM (inactive)
CCN(CC)CCNCc1cc(Cl)cc2c1OCOC2	> 10 µM (inactive)	> 10 µM (inactive)	> 10 µM (inactive)	> 10 µM	> 10 µM (inactive)		> 10 µM (inactive)	> 10 µM (inactive)	> 10 µM (inactive)	> 10 µM (inactive)	> 10 µM (inactive)	> 10 µM (inactive)	> 10 µM (inactive)	> 10 µM (inactive)	> 10 µM (inactive)	> 10 µM (inactive)	> 10 µM (inactive)	> 10 µM (inactive)	> 10 µM (inactive)
CCCO[C@@H]1[C@@H](OC(C)=O)[C@@H](OC(C)=O)C(C)(C)/C=C/[C@H](C)C(=O)[C@@]2(OC(C)=O)C[C@@](C)(OC(C)=O)[C@H](OC(C)=O)[C@@H]2[C@H]2OC(=O)CC[C@@]12OC(=O)c1ccccc1		> 25 µM (inactive)	> 25 µM (inactive)	> 25 µM	2.64 µM (inactive)	> 25 µM (inactive)	12.1 µM (inactive)	> 25 µM (inactive)	15.2 µM (inactive)	14.9 µM (inactive)	0.774 µM (active)	> 25 µM (inactive)	> 25 µM (inactive)		> 25 µM (inactive)		> 25 µM (inactive)	18.5 µM (inactive)	> 25 µM (inactive)
COc1ccc(CC/N=C2\CCC(C(=O)NCCc3ccc(OC)c(OC)c3)N2)cc1OC (stereo unspecified)	> 100 µM (inactive)	> 100 µM (inactive)		> 100 µM	> 100 µM (inactive)	> 100 µM (inactive)		> 100 µM (inactive)			> 100 µM (inactive)		> 100 µM (inactive)	> 100 µM (inactive)		> 100 µM (inactive)	> 100 µM (inactive)	> 100 µM (inactive)	> 100 µM (inactive)
CCn1cc(C(c2ccc(Cl)cc2)n2ccnc2)c2cc(Br)ccc21 (stereo unspecified)	10.4 µM (inactive)	12.8 µM (inactive)	16.6 µM (inactive)	12.2 µM		4.89 µM (inactive)	18.7 µM (inactive)	13.3 µM (inactive)	13.6 µM (inactive)	20.1 µM (inactive)		12.6 µM (inactive)	9.64 µM (inactive)	3.48 µM (inactive)	18.7 µM (inactive)		16.1 µM (inactive)	13.2 µM (inactive)	13.6 µM (inactive)
S=c1nc(Nc2ccc(Br)cc2)c2c3c(sc2[nH]1)CN(N1CCc2c(sc4[nH]c(=S)nc(Nc5ccc(Br)cc5)c24)C1)CC3	23 µM (inactive)	21.1 µM (inactive)	33.7 µM (inactive)	22.5 µM	17.6 µM (inactive)		> 50 µM (inactive)	8.36 µM (inactive)	15.2 µM (inactive)	12.6 µM (inactive)	12.8 µM (inactive)	> 50 µM (inactive)	30.2 µM (inactive)	19.2 µM (inactive)	29.3 µM (inactive)	11.6 µM (inactive)	> 50 µM (inactive)	23.1 µM (inactive)	> 50 µM (inactive)
CCC(=O)NC(OCC1(CC)COC1)(C(F)(F)F)C(F)(F)F		> 100 µM (inactive)	> 100 µM (inactive)	> 100 µM	> 100 µM (inactive)		> 100 µM (inactive)	> 100 µM (inactive)	> 100 µM (inactive)	> 100 µM (inactive)	> 100 µM (inactive)			> 100 µM (inactive)	> 100 µM (inactive)	> 100 µM (inactive)	> 100 µM (inactive)	> 100 µM (inactive)	> 100 µM (inactive)
NC(=S)N/N=C1\C(=O)Nc2c(Cl)cc(Cl)cc21	31.3 µM (inactive)	37.4 µM (inactive)		24.8 µM	12.4 µM (inactive)	72.1 µM (inactive)	24 µM (inactive)	17.2 µM (inactive)	16.7 µM (inactive)	17.4 µM (inactive)		17.8 µM (inactive)	34 µM (inactive)		18.1 µM (inactive)	15 µM (inactive)	73.1 µM (inactive)	34.5 µM (inactive)	19 µM (inactive)
C1#Cc2ccccc2OCCOc2ccccc2C#Cc2ccccc2OCCOc2ccccc21	25.2 µM (inactive)	15 µM (inactive)	> 100 µM (inactive)	> 100 µM	61.2 µM (inactive)		22.5 µM (inactive)	30.8 µM (inactive)	> 100 µM (inactive)	> 100 µM (inactive)	20.7 µM (inactive)	29.4 µM (inactive)	10.9 µM (inactive)	16.4 µM (inactive)		70.8 µM (inactive)	28.8 µM (inactive)		
CC1=NN(C(=O)c2ccc(Cl)cc2)C(=O)C1/N=N/c1ccc(S(=O)(=O)Nc2ncccn2)cc1 (stereo unspecified)	> 100 µM (inactive)	> 100 µM (inactive)	> 100 µM (inactive)	> 100 µM	> 100 µM (inactive)	< 0.01 µM (active)	> 100 µM (inactive)	> 100 µM (inactive)	> 100 µM (inactive)		> 100 µM (inactive)	> 100 µM (inactive)	> 100 µM (inactive)		> 100 µM (inactive)	> 100 µM (inactive)	> 100 µM (inactive)		> 100 µM (inactive)
